Experimental data from ChEMBL document CHEMBL1134297, “5,6-Diphenylpyridazine derivatives as acyl-CoA:cholesterol acyltransferase inhibitors” (J Med Chem, 2001).
pIC50: −log10 of the molar value. Several values for one entry are separate records, joined by “and”; a condition that tells them apart may be missing. Identical values can stand only once.

Experiments:
[1] = molecular target: T1, Sterol O-acyltransferase 1 (Rattus norvegicus, UniProt O70536); test: In vitro acyl-coenzyme A:cholesterol acyltransferase inhibition in rat liver microsomes; parameters: species or system Microsome
T1 sequence (O70536 whole entry): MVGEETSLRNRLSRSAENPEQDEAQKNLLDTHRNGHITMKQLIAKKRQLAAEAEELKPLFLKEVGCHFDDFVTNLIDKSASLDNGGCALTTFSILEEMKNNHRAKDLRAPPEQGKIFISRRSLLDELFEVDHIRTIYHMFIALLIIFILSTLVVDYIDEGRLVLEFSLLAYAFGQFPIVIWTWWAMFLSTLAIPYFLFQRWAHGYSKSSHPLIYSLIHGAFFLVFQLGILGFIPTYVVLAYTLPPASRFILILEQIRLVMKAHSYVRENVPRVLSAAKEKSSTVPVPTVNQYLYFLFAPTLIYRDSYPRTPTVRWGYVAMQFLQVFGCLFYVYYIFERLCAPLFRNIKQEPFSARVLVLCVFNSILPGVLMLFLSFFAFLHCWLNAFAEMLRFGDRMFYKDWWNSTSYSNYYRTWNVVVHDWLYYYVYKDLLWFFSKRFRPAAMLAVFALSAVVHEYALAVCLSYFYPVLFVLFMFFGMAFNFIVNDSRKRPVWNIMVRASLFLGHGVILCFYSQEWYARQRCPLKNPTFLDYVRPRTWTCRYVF

Mus musculus = organism: Mus musculus; test: Inhibition of cholesterol esterification in macrophages (Cholesterol efflux); assay type: functional
[2] = Percent inhibition of cell viability in murine macrophages; assay type: functional, Mus musculus; parameters: concentration or dose not given beside the values
[3] = molecular target: Sterol O-acyltransferase 1 (Mus musculus) (UniProt Q61263); test: Inhibitory activity against Acyl-coenzyme A:cholesterol acyltransferase in macrophages
Sequence of Sterol O-acyltransferase 1 (Mus musculus) (Q61263 whole entry, looked up): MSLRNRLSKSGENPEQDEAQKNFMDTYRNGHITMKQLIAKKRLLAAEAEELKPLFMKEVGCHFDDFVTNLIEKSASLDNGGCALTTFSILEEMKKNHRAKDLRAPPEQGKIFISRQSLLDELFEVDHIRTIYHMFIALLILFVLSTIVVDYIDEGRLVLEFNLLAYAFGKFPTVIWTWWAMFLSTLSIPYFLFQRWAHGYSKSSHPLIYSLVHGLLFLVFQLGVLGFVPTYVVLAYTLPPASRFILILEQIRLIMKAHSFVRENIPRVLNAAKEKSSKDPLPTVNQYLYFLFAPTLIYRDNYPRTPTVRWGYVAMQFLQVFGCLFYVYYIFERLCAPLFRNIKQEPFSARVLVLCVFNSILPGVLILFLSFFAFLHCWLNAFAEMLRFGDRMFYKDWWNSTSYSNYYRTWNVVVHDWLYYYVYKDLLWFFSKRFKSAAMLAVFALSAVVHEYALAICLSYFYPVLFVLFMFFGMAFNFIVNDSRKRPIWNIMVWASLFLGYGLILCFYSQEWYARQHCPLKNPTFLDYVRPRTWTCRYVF

SMILES | pIC50 [1] | further results
CCCCCCCCCOc1cc(-c2ccccc2)c(-c2ccccc2)nn1 | 3.74 | 
CC(C)n1nc(-c2ccccc2)c(-c2ccccc2)cc1=O | 3.82 | 
O=C(O)CCCCCCCn1nc(-c2ccccc2)c(-c2ccccc2)cc1=O | < 3.52 | 
O=c1cc(-c2ccccc2)c(-c2ccccc2)nn1C1CCCC1 | 3.92 | 
O=C(O)CCCCCCn1nc(-c2ccccc2)c(-c2ccccc2)cc1=O | < 3.52 | 
O=C(O)CCCCCCCCSc1cc(-c2ccccc2)c(-c2ccccc2)nn1 | < 3.52 | 
O=C(O)CCCCCSc1cc(-c2ccccc2)c(-c2ccccc2)nn1 | < 3.52 | 
CCCCn1nc(-c2ccccc2)c(-c2ccccc2)cc1=O | 3.75 | 
O=C(O)CCCCCCCSc1cc(-c2ccccc2)c(-c2ccccc2)nn1 | < 3.52 | 
CCCCCCCC[S+]([O-])c1cc(-c2ccccc2)c(-c2ccccc2)nn1 (stereo unspecified) | 4.04 | 
CCCCCCCCC[S+]([O-])c1cc(-c2ccccc2)c(-c2ccccc2)nn1 (stereo unspecified) | 4.06 | 
O=c1cc(-c2ccccc2)c(-c2ccccc2)nn1C1CCCCC1 | < 3.52 | 
CCCCCCCCSc1cc(-c2ccccc2)c(-c2ccccc2)nn1 | 3.89 | 
CCCCCCCCCSc1cc(-c2ccccc2)c(-c2ccccc2)nn1 | 3.94 | 
CCCCCCCCCNc1cc(-c2ccccc2)c(-c2ccccc2)nn1 |  | Esterification inhibitory concentration (Mus musculus): 14.1 µM and 13.8 µM; Inhibition [2]: 5.9% and 2.7% and <1%
CCCCCC(=O)Nc1cc(-c2ccccc2)c(-c2ccccc2)nn1 | < 3.52 | 
CCCn1nc(-c2ccccc2)c(-c2ccccc2)cc1=O | 3.64 | 
O=C(O)CCCCCCSc1cc(-c2ccccc2)c(-c2ccccc2)nn1 | < 3.52 | 
CCCCCCCCOc1cc(-c2ccccc2)c(-c2ccccc2)nn1 | 3.98 | 

Continued by rising pIC50 [1], values first:

pIC50 [1] | SMILES | further results
4.07 | CCCCCCCn1nc(-c2ccccc2)c(-c2ccccc2)cc1=O | 
4.07 | CCCCCCCCCn1nc(-c2ccccc2)c(-c2ccccc2)cc1=O | 
4.10 | CCCCCCCCn1nc(-c2ccccc2)c(-c2ccccc2)cc1=O | 
4.11 | CCCCCCC[S+]([O-])c1cc(-c2ccccc2)c(-c2ccccc2)nn1 (stereo unspecified) | 
4.12 | CCCCCCCSc1cc(-c2ccccc2)c(-c2ccccc2)nn1 | 
4.12 | CCCCCCCCCS(=O)(=O)c1cc(-c2ccccc2)c(-c2ccccc2)nn1 | 
4.12 | CCCCCC[S+]([O-])c1cc(-c2ccccc2)c(-c2ccccc2)nn1 (stereo unspecified) | 
4.14 | CCCCCOc1cc(-c2ccccc2)c(-c2ccccc2)nn1 | 
4.14 | CCCCCCOc1cc(-c2ccccc2)c(-c2ccccc2)nn1 | 
4.18 | CCCCCn1nc(-c2ccccc2)c(-c2ccccc2)cc1=O | 
4.21 | CCCCCCSc1cc(-c2ccccc2)c(-c2ccccc2)nn1 | 
4.22 | CCCCCCS(=O)(=O)c1cc(-c2ccccc2)c(-c2ccccc2)nn1 | 
4.24 | CCCCCCCOc1cc(-c2ccccc2)c(-c2ccccc2)nn1 | Esterification inhibitory concentration (Mus musculus): 12.6 µM and 11.8 µM; Inhibition [2]: <1%; pIC50 [3]: 5.29
4.24 | CCCCCCn1nc(-c2ccccc2)c(-c2ccccc2)cc1=O | 
4.25 | CCCCCCn1nc(-c2ccccc2)c(-c2ccccc2)c(C)c1=O | 
4.26 | CCCCCCCNc1cc(-c2ccccc2)c(-c2ccccc2)nn1 | 
4.31 | CCCCCCCS(=O)(=O)c1cc(-c2ccccc2)c(-c2ccccc2)nn1 | 
4.40 | CCCCCCCCNc1cc(-c2ccccc2)c(-c2ccccc2)nn1 | Esterification inhibitory concentration (Mus musculus): 12.9 µM and 11.5 µM; Inhibition [2]: 11.5% and 9.9% and 3.7% and 4.8%; pIC50 [3]: 5.49
4.44 | CCCCCCCCS(=O)(=O)c1cc(-c2ccccc2)c(-c2ccccc2)nn1 | 
4.62 | CCCCCCNc1cc(-c2ccccc2)c(-c2ccccc2)nn1 | 
